Patent publication USRE47954E1, “Combination therapy with peptide epoxyketones” (priority 2008, dated 2020)
Like-named read-outs stand apart in the source and are kept apart here.

Assays:
[1] = Protocol: Toxicity Studies: 4-6 weeks old female BNX mice were treated with chemotherapeutic agents of multiple classes as monotherapy or in combination with carfilzomib. Two weeks toxicity studies were performed at doses and dose schedules as mentioned in the figure legend. Toxicity was measured as body weight loss three times a week.
The dose schedule as shown in FIG. 2A was Doxil day 1 (iv), after one hour Compound 1 day 1, 2 (iv).
The dose schedule as shown in FIG. 5A was docetaxel day 1 (iv), after one hour Compound 1 day 1, 2 (iv).

RL human lymphoma cells = test: RL human lymphoma xenograft, Example 1 (FIG. 1); assay type: in vivo, Immunocompromised mice (BNX); settings: Compound 1 IV Days 1 and 2 each week + SAHA IP Days 1-5 each week; two-way ANOVA, Bonferroni
Protocol: Immunocompromised mice (BNX, Charles River Laboratories) were challenged with subcutaneous administration of RL human lymphoma cells (1×10^7/mouse) on the right flank in a total volume of 0.1 mL phosphate buffered saline (PBS). When tumors were approximately 50 mm^3 in size (as indicated by the arrow in FIG. 1), mice were randomized to treatment groups (9 mice/group). Compound 1 was administered intravenously (IV) in a solution of 10% (w/v) sulfobutylether-betacyclodextrin in aqueous 10 mM citrate buffer pH 3.5. Administration was given on Days 1 and 2 each week. SAHA was formulated in 100% DMSO and administered intraperiotoneally (IP) on Days 1-5 each week. ***=P<0.001 (Compound 1+SAHA vs. Vehicle) by two-way ANOVA and Bonferroni post-hoc comparisons.

[2] = system: MM1.S (multiply myeloma, dexamethasone sensitive) cells; test: Cell titer glo viability, combination index with melphalan (FIG. 11); assay type: cell-based; settings: Compound 1 6.58 nM + melphalan 11.1, 7.4, 4.9 and 3.3 μM; melphalan pretreatment 24 hours, then Compound 1 24 hours
Protocol: Compound 1 was tested at 6.58 nM in combination with melphalan at four different doses: 11.1, 7.4, 4.9 and 3.3 μM. MM1.S (multiply myeloma, dexamethasone sensitive) cells were plated at 200,000 cells/mL in 45 μL then pretreated with melphalan for 24 hours. Compound 1 was then added and the cells were incubated for an additional 24 hours at 6.58 nM. A 1:1 ratio of Cell titer glo solution was then added to the cell samples and read for viability. Combination index values were calculated using the Calcusyn program where values <0.9=synergy, 0.9-1.0=additive and >1.1=antagonistic.

[3] = system: HT29 colorectal xenograft; test: HT29 colorectal xenograft model (FIG. 3)
Protocol: (§3) Xenograft studies: Tumors were established by subcutaneous (s.c.) injection of cell lines (passage number <9 and viability >95% at the time of implantation) in the right flank of BNX mice (n=8/9 per group). RL (0.1 mL) cell suspensions containing 1×10^7 cells. 5×10^6 cell suspension (0.1 mL) were injected in case of HT-29, ES2 and A549 cells. Mice were randomized into treatment groups and dosing initiated when tumors size was approximately 100 mm^3. In all treatment groups, tumors were measured three times weekly by recording the longest perpendicular diameters and tumor volumes were calculated using the equation V (mm^3)=(length×width^2)/2.
(§4) Statistical analysis: For comparisons of treatment groups, a two-way ANOVA followed by Bonferroni post hoc analysis using GraphPad Prism Software (version 4.01) was performed. Statistical significance was achieved when p<0.05.

[4] = system: A549 non-small cell lung cancer xenograft; test: A549 non-small cell lung cancer xenograft model (FIG. 4, 6, 7); assay type: in vivo, BNX mice
Protocol: as §3, §4

RL tumors = test: RL lymphoma xenograft, Example 2 (FIG. 9); assay type: in vivo, BNX mice
Protocol: (§1) Statistical significance was achieved when p<0.05.
(§2) The effect of the combination of Compound 1 (3 mg/kg) and vorinostat (50 mg/kg) (n=8/group) on established RL tumors is shown in FIG. 9 (arrow indicates start of dosing period). The effect of the combination of Compound 1 (3 mg/kg) and vorinostat (50 mg/kg) (n=8/group) on established ES2 tumors. **, P<0.01; and ***, P<0.001 vs monotherapy and vehicle is shown in FIG. 10 (arrow indicates start of dosing period).

[5] = system: relapsed multiple myeloma patients; test: Phase Ib dose escalation study of carfilzomib plus lenalidomide and low-dose dexamethasone; assay type: in vivo; settings: preliminary
Description: Within the first three cohorts, seventeen patients were evaluable for response and toxicity.

ES2 tumors = test: ES2 ovarian xenograft (FIG. 10); assay type: in vivo, BNX mice; settings: in combination with vorinostat (50 mg/kg), ovarian cancer model
Protocol: as §1, §2

[6] = combination Compound 1 (5 mg/kg) + Doxil (3 mg/kg)
[7] = combination Compound 1 at MTD (5 mg/kg) + docetaxel (5 mg/kg), FIG. 6
[8] = combination Compound 1 at sub-MTD (3 mg/kg) + sub-MTD docetaxel (5 mg/kg), FIG. 7
[9] = combination of Compound 1 and vorinostat

## CC(C)C[C@H](NC(=O)[C@H](CCc1ccccc1)NC(=O)CN1CCOCC1)C(=O)N[C@@H](Cc1ccccc1)C(=O)N[C@@H](CC(C)C)C(=O)[C@@]1(C)CO1 [Compound 1, carfilzomib]
[1]; carfilzomib QDx2 (iv)
  MTD: 5 mg/kg
RL human lymphoma cells
  tumor volume, P (Compound 1+SAHA vs. Vehicle): < 0.001
[2]
  combination effect (combination index, Calcusyn): synergistic and additive effects
[3]; Compound 1 and Doxil at sub-MTD doses, solid tumor model
  anti-tumor effect of combination: synergistic anti-tumor effect
[3]; Compound 1 and Doxil combination, HT-29 xenograft model
  tumor burden: significantly reduced tumor burden
[3]; Compound 1 at MTD (5 mg/kg) and sub-MTD of Doxil (3 mg/kg)
  anti-tumor activity: increased anti-tumor activity
[3]; [6]
  tumor size, p vs. Doxil alone: < 0.01
  tumor size, p vs. control or carfilzomib alone: < 0.001
[4]; [6]
  tumor size, p vs. control or Doxil alone: < 0.001
  tumor size, significance vs. carfilzomib alone: No significance
[4]; [7]
  tumor size, p vs. carfilzomib alone: < 0.05
  tumor size, p vs. control: < 0.001
[4]; [8]
  tumor size, p vs. carfilzomib and docetaxel: < 0.01
  tumor size, p vs. control: < 0.001
[4]; combination with docetaxel, compared to vehicle controls or either single agent
  A549 tumor growth: significant reduction
[4]; in combination with docetaxel at sub-MTD doses, human lung cancer model
  anti-tumor effect of combination: synergistic anti-tumor effect
RL tumors; [9]
  RL tumor growth, p vs. Compound 1 or vorinostat alone: < 0.01
  RL tumor growth, p vs. control: < 0.001
RL tumors; combination with vorinostat, compared to vehicle controls or either single agent, Compound 1 3 mg/kg, vorinostat 50 mg/kg
  lymphoma (RL) tumor growth: significant reduction
RL tumors; in combination with vorinostat, lymphoma model
  anti-tumor effect of combination: synergistic anti-tumor effect
[5]; first three cohorts
  maximum tolerated dose (MTD): not yet reached
[5]
  Responses: durable
ES2 tumors
  anti-tumor property of combination: effective anti-tumor property

## CC(=O)O[C@@]12CO[C@@H]1C[C@H](O)[C@@]1(C)C(=O)[C@H](O)C3=C(C)[C@@H](OC(=O)[C@H](O)[C@@H](NC(=O)OC(C)(C)C)c4ccccc4)C[C@@](O)([C@@H](OC(=O)c4ccccc4)[C@H]21)C3(C)C [docetaxel, reference compound]
[1]; docetaxel in combination with carfilzomib, docetaxel day 1 (iv), Compound 1 day 1, 2 (iv)
  MTD: 10 mg/kg
